Measured values published in patent publication US20110123617A1, “CLIOQUINOL FOR THE TREATMENT OF HEMATOLOGICAL MALIGNANCIES” (priority 2007, published 2011).
pIC50: −log10 of the molar value. Entries after “also recorded” stand apart in the source; their conditions may differ.

Key:
myeloma cell lines = assay: Cell viability (MTS assay), myeloma cell lines; type: cell-based; settings: 12/14 myeloma cell lines, forty-eight hours; read-out: IC50 (cell death)
Method: (§1) Cell viability of leukemia, myeloma, solid tumor and primary cells forty-eight hours after clioquinol treatment by MTS assay. Cell viability was assessed with the CellTiter96® Aqueous Non-Radioactive Assay kit according to manufactures' instructions (Promega). Apoptosis was measured by flow cytometry to detect cell surface Annexin V expression and propidium iodide (PI) uptake (Biovision, Mountain View, Calif., USA) as previously described (20) The inventors tested the effects of clioquinol on the viability of acute leukemia (n=7), myeloma (n=14), and solid tumor (n=5) cell lines as well as primary AML samples (n=6) and primary normal hematopoietic cells (n=3). Forty-eight hours after incubation, clioquinol induced cell death in 6/7 AML, 12/14 myeloma, 0/5 solid tumor, […] and 0/3 normal hematopoietic cells with an IC50 <20 μM (FIG. 5). Of note, after oral administration of clioquinol, trough serum concentrations of 20 μM can be achieved in patients (32).

[1] = test system: proteasome in normal hematopoietic cells; assay: Proteasome activity in normal hematopoietic cells (PBSC); type: cell-based, human
Method: Proteasome activity of primary acute myeloid leukemia (AML) blasts or normal peripheral blood stem cells (PBSC) after twenty hours of treatment with clioquinol (CQ), or an equimolar concentration of […] and CuCl2 (Cu). After treatment, the preferential chymotrypsin-like substrate Suc-LLVY-AMC was added and the rate of free AMC was measured over time with a florescent spectrophotometric plate reader (excitation=380 nm, emission=460 nm). Cellular proteins were extracted from cells with lysis buffer (50 mM HEPES pH 7.5, 150 mM NaCl, 2 mM ATP, and 1% Triton X-100). The chymotrypsin-like activity of the proteasome was measured by incubating equal amounts of protein with the preferential chymotrypsin-like substrate Suc-LLVY-AMC in assay buffer (50 mM Tris-HCl, pH 7.5, 150 mM NaCl) for two hours. After incubation, […] and the rate of free AMC was measured over time with a florescent spectrophotometric plate reader (excitation=380 nm, emission=460 nm). The inventors examined the effect of clioquinol and copper on primary AML cells and normal hematopoietic cells. Primary AML were obtained from the peripheral blood of patients with AML. Normal hematopoietic stem cells (PBSC) were obtained from the peripheral blood of volunteers donating stem cells for allotransplant. […] After incubation, cell lysates were prepared and the enzymatic activity of the proteasome measured as above.

[2] = test system: primary AML patient samples; assay: Cell viability (MTS assay), primary AML patient samples; type: cell-based, human
Method: as §1

## Oc1c(I)cc(Cl)c2cccnc12 [clioquinol, 5-chloro-7-iodo-8-hydroxyquinoline]
Myeloma cell lines
  pIC50: > 4.70
[1]
  enzymatic activity of the proteasome: no effect; also recorded: no proteasomal inhibition was detected
[2]; Homo sapiens, 6/7 primary AML patient samples, forty-eight hours, read-out: IC50 (cell death)
  pIC50: > 4.70
[2]; primary AML cells supplemented with copper
  potency of clioquinol: increased the potency of clioquinol
